According to BigSolDB 2.1:

O=C1CCc2ccc(OCCCCN3CCN(c4cccc(Cl)c4Cl)CC3)cc2N1
solubility (mole fraction)
Conditions | 278.15 K | 283.15 K | 288.15 K | 293.15 K | 298.15 K | 303.15 K | 308.15 K | 313.15 K | 318.15 K
in acetone | 1.97e-05 | 2.73e-05 | 3.6e-05 | 4.71e-05 | 5.94e-05 | 7.32e-05 | 8.93e-05 | 0.00011 | 0.000135
in isopropanol | 6.32e-06 | 9.1e-06 | 1.22e-05 | 1.68e-05 | 2.25e-05 | 2.94e-05 | 3.89e-05 | 5.05e-05 | 6.38e-05
in n-propanol | 1.46e-05 | 1.93e-05 | 2.57e-05 | 3.28e-05 | 4.12e-05 | 5.37e-05 | 6.72e-05 | 8.32e-05 | 0.000103
